Molecular target: MAP kinase-activated protein kinase 2 (Homo sapiens, UniProt P49137)
Test: Kinase reactions were started with the addition of 40 μL of MK-2 enzyme and monitored every 71 seconds for 30-240 minutes at λex360/λem485 in a Synergy2, Synergy4 or Synergy H4 plate reader from BioTek (Winooski, Vt.). […] Initial velocity (0 minutes to +30 minutes) from each reaction was estimated from the slope of a plot of relative fluorescence units vs time (minutes) and normalized to the no enzyme and no inhibitor control groups for % Inhibition. The resulting % Inhibition values were then plotted against inhibitor concentration to estimate IC50 from log[Inhibitor] vs Response, Variable Slope model in GraphPad Prism from GraphPad Software (San Diego, Calif.).

Sequence of MAP kinase-activated protein kinase 2 (P49137 whole entry): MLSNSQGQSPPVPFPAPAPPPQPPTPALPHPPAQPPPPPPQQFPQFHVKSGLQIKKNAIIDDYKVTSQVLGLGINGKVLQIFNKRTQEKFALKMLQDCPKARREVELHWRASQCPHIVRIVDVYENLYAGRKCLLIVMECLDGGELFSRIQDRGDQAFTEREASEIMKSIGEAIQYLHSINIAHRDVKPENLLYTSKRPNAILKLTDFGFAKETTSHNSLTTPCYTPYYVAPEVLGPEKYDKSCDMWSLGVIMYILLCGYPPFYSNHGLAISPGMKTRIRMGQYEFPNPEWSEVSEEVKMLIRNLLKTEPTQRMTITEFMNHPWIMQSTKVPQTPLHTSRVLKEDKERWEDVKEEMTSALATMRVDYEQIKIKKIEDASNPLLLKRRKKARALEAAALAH

Compound	EC50 [nM]	IC50 [nM]
C=CC(=O)Nc1cc(NC(=O)c2ccc3sc4c(c3c2)NC[C@@H](C)NC4=O)ccc1C1CCN(C)CC1	< 100	< 100
C=CC(=O)N1CCOc2ccc(-c3cc4c(cn3)CCc3c-4[nH]c4c3C(=O)NCC4)cc21	–	< 100
C=CC(=O)Nc1cc(-c2cc3c(ccc4c5c([nH]c43)CCC5=O)cn2)ccc1C	< 100	< 100
